From US5144010A, “Method of producing monoclonal auto-anti-idiotypic antibodies” (The Trustees of Columbia University in the City of New York, priority 1989, dated 1992)
Where two headings read alike, the source gives them in different places.

What was measured:
rabbit anti-BisQ = experiment: Enzyme immunoassay of F8-D5 binding to rabbit anti-BisQ and its inhibition; conditions: read-out: concentration giving 50% inhibition of binding of F8-D5 to rabbit anti-BisQ; stated as a similar concentration
Description: (§1) Wells of polystyrene plates (Corning) were then coated with 150 microliters of either 400 ng/ml purified rabbit anti-BisQ (1) in 0.1 M NaHCO3, pH 9.3, or […] purified Torpedo receptor in the same buffer. Coating was accomplished by incubating for 2 h at 37° C. After two washings with 0.01 M phosphate buffer:0.14 M NaCl, pH 7.2, containing 0.05% v/v Tween-20 (PBS-Tween), the wells were exposed to the various concentrations of F8-D5 in PBS-Tween. After incubation at 37° C. for 2h, the wells were washed three times with PBS-Tween and then filled with 200 microliters of 1:1,000 dilution in PBS-Tween of goat anti-mouse immunoglobulin labeled with horseradish -peroxidase (Sigma). After incubation at 37° C. for 1 h, the wells were washed three times with PBS-Tween. Peroxidase was assayed by incubation with o-phenylenediamine dihydrochloride (7 mg in 10 ml 0.1 M citrate-phosphate buffer, pH 4.8, containing 5 microliters of 30% H2 O2) for 10 min. The reaction was stopped with 50 microliters per well of 4 M H2 SO4 and the color read at 492 nm in a Multiskan Titertek apparatus. Values were corrected for a PBS blank which was never higher than 0.150. (The above conditions were not chosen for optimal sensitivity but for speed and convenience.)
(§2) To confirm that the same monoclonal antibody bound receptor and anti-BisQ, reciprocal inhibition experiments were carried. […]

Torpedo AChR = molecular target: T1, Torpedo AChR (Tetronarce californica, UniProt P02710+P02714+P02718); experiment: Enzyme immunoassay of F8-D5 binding to Torpedo AChR and its inhibition
T1 construct: purified Torpedo AChR preparation; from tissue; host or cells: Torpedo electric organ (inferred, the usual source of purified Torpedo receptor)
Description: as §1, §2

anti-steroid antibodies = experiment: Competitive inhibition of binding of [3H]TA to rabbit anti-steroid antibodies (serum, affinity purified, Fab fragments)
Description: After incubating for 11/2 hrs at room temperature add 1 ml cold 5% charcoal/dextran (dil 1:40 with 0.1% gelatin in PBS). Let stand at 4° C. for 10 mins.

[1] = molecular target: anti-steroid Fab fragments; experiment: Scatchard analysis of tritiated steroid binding to Fab fragments of affinity purified anti-steroid antibodies; set-up: species or system rabbit; conditions: tritiated ligand, read-out: Kd for Fab fragments of the anti-steroid from Scatchard plots
Description: FIG. 5. Scatchard plot of the binding of [^3 H]triamcinolone acetonide to Fab fragments of affinity purified anti-steroid antibodies. Fab fragments (0.227 micrograms) were incubated with increasing concentrations of [^3 H]triamcinolone acetonide (0.4-62.5 nM) in the presence of 0.01M phosphate buffered saline pH 7.4 containing 0.1% gelatin in a total volume of 200 microliters. Total and non-specific binding (50 micromolar triamcinolone acetonide) were determined for each of the [^3 H]triamcinolone acetonide levels and all points were in duplicate. After incubating 1 hr at room temperature, add 1 ml cold 5% charcoal/dextran (diluted 1:40 in 0.01M PBS containing 0.1% gelatin) and let stand on ice for 10 min. Centrifuge down the charcoal/dextran, decant the supernatant into scintillation vials and determine the radioactivity.

[2] = system: anti-steroid Fab fragments; experiment: ELISA of 8G11-C6 binding to anti-steroid Fab fragments and its inhibition; set-up: species or system rabbit; conditions: inhibitor pre-incubated (FIG. 9, 10)
Description: FIG. 9 and 10. […] Controls with no inhibitor were included. […] Blanks with only PBS were included as well. The inhibitors used in FIG. 9 were triamcinolone acetonide ( ), triamcinolone-RSA ( ) and rabbit serum albumin ( ).
FIG. 11. […] The method used was similar to that described in the experimental procedure. […] 200λ of the incubation mixture was then added to microtiter wells previously coated with 10 ng anti-steroid Fab fragments and incubated for 2 hrs at 37° C.
The presence of anti-idiotypic antibodies in the hybridoma culture medium were assayed by a double antibody sandwich ELISA. […] After washing twice with 0.01M phosphate buffer - 0.14M NaCl, pH 7.4, containing 0.05% Tween (PBS-tween), the culture medium from the hybridomas was added and incubated at 37° C. for 2 hrs. The wells were washed three times with PBS-tween and 200 microliters of 1:3,000 dilution in PBS-tween of goat anti-mouse IgM-IgG horseradish peroxidase (Tago) was added. After incubating 1 hr at 37° C., the wells were washed three times with PBS-tween and 200 microliters substrate (7 mg o-phenylenediamine dichloride in 10 ml 0.1 M citrate-phosphate buffer, pH 4.8 containing 5 microliters of 30% H2 O2) was added. Depending on the intensity of the color, the reaction was stopped after 5-10 min by the addition of 50 microliters 8N H2 SO4 and the OD determined (Titretek) at 492 nm.

[3] = molecular target: T2, partially purified glucocorticoid receptor (Rattus norvegicus, UniProt P06536); experiment: ELISA of 8G11-C6 binding to partially purified glucocorticoid receptor and its inhibition; conditions: ELISA (FIG. 13)
T2 sequence (P06536 1-795): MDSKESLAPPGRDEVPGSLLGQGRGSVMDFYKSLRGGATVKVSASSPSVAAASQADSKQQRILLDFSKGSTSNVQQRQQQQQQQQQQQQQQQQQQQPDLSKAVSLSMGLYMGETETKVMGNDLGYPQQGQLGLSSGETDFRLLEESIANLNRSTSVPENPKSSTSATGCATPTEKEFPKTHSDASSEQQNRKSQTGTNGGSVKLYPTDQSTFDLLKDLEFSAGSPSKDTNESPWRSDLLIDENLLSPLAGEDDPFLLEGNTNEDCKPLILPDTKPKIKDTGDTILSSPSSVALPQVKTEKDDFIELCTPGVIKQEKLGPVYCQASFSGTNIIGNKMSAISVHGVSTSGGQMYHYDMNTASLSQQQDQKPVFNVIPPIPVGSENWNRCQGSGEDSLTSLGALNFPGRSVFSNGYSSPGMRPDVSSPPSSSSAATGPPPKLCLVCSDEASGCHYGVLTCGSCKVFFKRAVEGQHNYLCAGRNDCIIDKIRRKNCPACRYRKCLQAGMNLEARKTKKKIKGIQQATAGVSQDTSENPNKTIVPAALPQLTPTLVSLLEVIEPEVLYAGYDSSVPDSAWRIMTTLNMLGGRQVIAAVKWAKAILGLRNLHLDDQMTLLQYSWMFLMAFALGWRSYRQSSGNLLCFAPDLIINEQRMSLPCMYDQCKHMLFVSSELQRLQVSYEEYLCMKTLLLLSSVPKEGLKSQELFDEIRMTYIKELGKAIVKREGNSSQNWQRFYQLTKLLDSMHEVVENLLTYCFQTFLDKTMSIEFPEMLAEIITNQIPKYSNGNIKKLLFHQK
Description: FIG. 12. […] 200 microliters containing either 1.08 micrograms ( ) or 0.54 micrograms ( ) of a partially purified receptor preparation in 0.1 M NaHCO3 were added to the wells of the polystyrene plastic and incubated overnight at 4° C. […] See methods section for the methodology employed.
FIG. 13. […] 200 microliters containing 0.54 micrograms protein of a partially purified receptor preparation in 0.1 M NaHCO3 pH 9.3 was added to the wells of polystyrene plates. These were incubated for 2 hrs at 37° C. Washed 2× with PBS containing 0.02% Tween. […] See methods for the methodology employed. The inhibitors used were triamcinolone acetonide ( ), rabbit serum albumin ( ) and triamcinolone-RSA ( ).

glucocorticoid receptor [4] = molecular target: T3, glucocorticoid receptor (Rattus norvegicus, UniProt P06536); experiment: biochemical
T3 sequence (P06536 1-795): T2 sequence (P06536 1-795)
Description: (§3) Incubate in a total volume of 500 microliters, for 2 hrs at 4° C., 20 mM HEPES buffer containing 50 mM NaCl, 1 mM EDTA, 10% glycerol 0.1 mM DTT pH 7.6, 10 nM [^3 H]TA and 200 microliters rat liver cytosol. Add 250 microliters 5% charcoal/dextran suspension and after 10 min centrifuge and determine the radioactivity in 200 λ aliquot.
(§4) The results tabulated in table I below represents the amount of unlabeled steroid that can displace 50% binding of 1×10^-8 M [^3 H]TA. Binding in the absence of competing steroid was taken as 100%.
(§5) Table I: Competitive inhibition of binding of [^3 H] triamcinolone to
(§6) glucocorticoid receptor included 100 ml of rat liver cytosol. 10^-8 M
(§7) [^3 H]TA and increasing concentrations of steroid in a total volume o
(§8) 200 ml. After incubating for 2 hrs at 4° C., 100 5%
(§9) charcoal/dextran was added. Let stand for 5 mins at 4° C. Make up
(§10) to 1 ml with PBS and after 5 mins centrifuge down charcoal. Decant
(§11) supernatant into scintillation vials. Add 10 ml hydrofluor and count.

glucocorticoid receptor [5] = molecular target: T3, glucocorticoid receptor; experiment: Competitive inhibition of binding of [3H]triamcinolone acetonide to glucocorticoid receptor in rat liver cytosol; conditions: apparent Kd of the glucocorticoid receptor, competitive binding with [3H]TA as tracer (FIG. 6, Table I)
Description: as §3, §4, §5, §6, §7, §8, §9, §10, §11

[6] = affinity purified anti-steroid 1.3 micrograms, 1×10^-8 M [3H]TA, read-out: Affinity purified anti-steroid: amount of unlabeled steroid that can displace 50% binding of [3H]TA
[7] = anti-steroid Fab fragments 0.18 micrograms, 1×10^-8 M [3H]TA, read-out: Rabbit serum 541 Fab fragments: amount of unlabeled steroid that can displace 50% binding of [3H]TA
[8] = unprocessed rabbit serum 540 dil 1:1000, 1×10^-8 M [3H]TA, read-out: Rabbit Serum 540 Unprocessed: amount of unlabeled steroid that can displace 50% binding of [3H]TA
[9] = unprocessed rabbit serum 540 dil 1:1000, 1×10^-8 M [3H]TA

T1 sequence (P02710 25-461): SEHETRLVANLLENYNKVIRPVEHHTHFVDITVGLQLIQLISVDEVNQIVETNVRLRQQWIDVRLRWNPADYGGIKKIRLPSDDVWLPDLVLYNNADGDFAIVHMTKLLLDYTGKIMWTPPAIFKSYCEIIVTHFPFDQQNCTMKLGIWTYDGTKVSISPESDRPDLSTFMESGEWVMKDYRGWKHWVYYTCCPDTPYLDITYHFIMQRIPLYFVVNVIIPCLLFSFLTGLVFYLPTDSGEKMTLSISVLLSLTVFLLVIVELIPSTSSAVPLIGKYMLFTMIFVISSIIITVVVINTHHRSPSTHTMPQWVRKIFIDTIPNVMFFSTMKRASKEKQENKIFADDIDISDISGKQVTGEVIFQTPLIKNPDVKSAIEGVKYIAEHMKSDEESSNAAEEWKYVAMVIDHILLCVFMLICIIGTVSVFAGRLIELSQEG
T1 sequence (P02712 25-493 partner): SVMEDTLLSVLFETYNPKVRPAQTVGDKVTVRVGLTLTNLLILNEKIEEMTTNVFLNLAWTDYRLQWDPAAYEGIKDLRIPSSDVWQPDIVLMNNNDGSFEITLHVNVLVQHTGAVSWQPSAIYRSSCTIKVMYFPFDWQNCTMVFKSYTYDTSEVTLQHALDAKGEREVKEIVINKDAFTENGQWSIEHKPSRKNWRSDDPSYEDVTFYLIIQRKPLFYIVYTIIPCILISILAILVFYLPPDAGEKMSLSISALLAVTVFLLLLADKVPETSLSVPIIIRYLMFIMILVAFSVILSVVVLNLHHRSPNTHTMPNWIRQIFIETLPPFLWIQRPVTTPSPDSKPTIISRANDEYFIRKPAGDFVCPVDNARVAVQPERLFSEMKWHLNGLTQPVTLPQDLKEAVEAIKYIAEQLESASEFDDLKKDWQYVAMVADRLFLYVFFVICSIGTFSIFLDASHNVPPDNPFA
T1 sequence (P02714 18-506): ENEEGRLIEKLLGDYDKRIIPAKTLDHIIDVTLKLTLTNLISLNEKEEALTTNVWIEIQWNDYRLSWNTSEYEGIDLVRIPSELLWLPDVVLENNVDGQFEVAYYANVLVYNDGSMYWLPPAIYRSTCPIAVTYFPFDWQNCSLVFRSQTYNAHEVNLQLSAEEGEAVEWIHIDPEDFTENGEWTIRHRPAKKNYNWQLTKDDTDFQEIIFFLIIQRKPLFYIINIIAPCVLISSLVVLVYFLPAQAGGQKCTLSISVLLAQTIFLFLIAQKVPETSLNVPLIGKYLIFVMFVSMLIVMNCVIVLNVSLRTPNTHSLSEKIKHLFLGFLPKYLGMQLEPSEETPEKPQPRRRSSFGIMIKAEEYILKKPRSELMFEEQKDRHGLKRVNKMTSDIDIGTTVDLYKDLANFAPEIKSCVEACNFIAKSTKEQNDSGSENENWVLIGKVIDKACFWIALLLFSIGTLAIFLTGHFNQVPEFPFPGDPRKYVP
T1 sequence (P02718 22-522): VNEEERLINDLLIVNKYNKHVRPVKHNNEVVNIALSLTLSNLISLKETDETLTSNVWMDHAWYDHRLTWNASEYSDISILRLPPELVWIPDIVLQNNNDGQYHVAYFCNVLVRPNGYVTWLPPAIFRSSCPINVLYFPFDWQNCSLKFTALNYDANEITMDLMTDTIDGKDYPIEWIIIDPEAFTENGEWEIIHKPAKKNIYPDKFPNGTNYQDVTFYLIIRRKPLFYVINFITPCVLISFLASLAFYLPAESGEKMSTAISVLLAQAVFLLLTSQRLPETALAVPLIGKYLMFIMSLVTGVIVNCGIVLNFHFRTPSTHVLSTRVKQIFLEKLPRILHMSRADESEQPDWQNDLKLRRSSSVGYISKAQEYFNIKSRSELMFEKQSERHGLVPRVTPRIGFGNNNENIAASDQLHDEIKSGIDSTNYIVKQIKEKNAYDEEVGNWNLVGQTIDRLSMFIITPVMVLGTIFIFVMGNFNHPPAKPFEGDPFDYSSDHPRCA

What does the source list for C[N+](C)(C)Cc1cccc(/N=N/c2cccc(C[N+](C)(C)C)c2)c1 [BisQ, trans-3,3'-bis(α-trimethylammonium)azotoluene]?
IC50 (rabbit anti-BisQ): ~40 µM; IC50 (Torpedo AChR): 40 µM

What does the source list for C[C@]12C[C@H](O)[C@H]3[C@@H](CCC4=CC(=O)CC[C@@]43C)[C@@H]1CC[C@@H]2C(=O)CO [Corticosterone]?
IC50 (anti-steroid antibodies; [6]): 100 µM; IC50 (anti-steroid antibodies; [7]): 100 µM; IC50 (anti-steroid antibodies; [8]): 6.3 µM

Which results are given for C[C@@H]1C[C@H]2[C@@H]3CCC4=CC(=O)C=C[C@]4(C)[C@@]3(F)[C@@H](O)C[C@]2(C)[C@@]1(O)C(=O)CO [Dexamethasone]?
IC50 (anti-steroid antibodies; [6]): 0.62 µM; IC50 (anti-steroid antibodies; [7]): 0.63 µM; IC50 (anti-steroid antibodies; [8]): 0.12 µM; Kd [1]: 0.15 µM

With C[C@]12CCC(=O)C[C@@H]1CC[C@@H]1[C@@H]2CC[C@]2(C)[C@@H](O)CC[C@@H]12 [Dihydrotestosterone] as the compound, how does the “Rabbit Serum 540 Unprocessed: amount of unlabeled steroid that can displace 50% binding of [3H]TA” value (anti-steroid antibodies; [9]) read?
The value was “no effect”.

Which IC50 (anti-steroid antibodies; [6]) does the source give for C[C@]12CCC(=O)C=C1CC[C@@H]1[C@@H]2[C@@H](O)C[C@@]2(C)[C@H]1CC[C@]2(O)C(=O)CO [Hydrocortisone] here?
The IC50 was 100 µM.

What about the IC50 (anti-steroid antibodies; [7]) of the same compound?
Its IC50 is 100 µM.

What about the IC50 (anti-steroid antibodies; [8]) of the same compound?
Its IC50 is 5 µM.

How did the IC50 (anti-steroid antibodies; [6]) turn out when CC(=O)[C@H]1CC[C@H]2[C@@H]3CCC4=CC(=O)CC[C@]4(C)[C@H]3CC[C@]12C [Progesterone] was run?
Its IC50 is 100 µM.

What about the IC50 (anti-steroid antibodies; [7]) of the same compound?
The IC50 was 100 µM.

What about the IC50 (anti-steroid antibodies; [8]) of the same compound?
Its IC50 is 100 µM.

How did the “effect on the binding of 8G11-C6 to anti-steroid Fab fragments” value (“effect … to anti-steroid Fab fragments” for short) [2] turn out when C[C@]12CC[C@H]3[C@@H](CCC4=CC(=O)CC[C@@]43C)[C@@H]1CC[C@@H]2O [Testosterone] was run?
The value was “slight activation of binding”.

What about the “Affinity purified anti-steroid: amount of unlabeled steroid that can displace 50% binding of [3H]TA” value (anti-steroid antibodies; affinity purified anti-steroid 1.3 micrograms, 1×10^-8 M [3H]TA) of the same compound?
The value was “not inhibited”.

And the “Rabbit serum 541 Fab fragments: amount of unlabeled steroid that can displace 50% binding of [3H]TA” value (anti-steroid antibodies; anti-steroid Fab fragments 0.18 micrograms, 1×10^-8 M [3H]TA)?
Its value is “not inhibited”.

What about the “Rabbit Serum 540 Unprocessed: amount of unlabeled steroid that can displace 50% binding of [3H]TA” value (anti-steroid antibodies; [9]) of the same compound?
Its value is “not inhibited”.

And the “effect on the binding of 8G11-C6 to partially purified glucocorticoid receptor” value [3]?
The value was “only a slight inhibitory effect”.

C[C@]12C=CC(=O)C=C1CC[C@H]1[C@@H]3C[C@@H](O)[C@](O)(C(=O)CO)[C@@]3(C)C[C@H](O)[C@@]12F [Triamcinolone, 9-fluoro-11β, α16 , 17, 21-tetrahydroxypregna-1,4-diene-3, 20-dione] was tested. Which “effect … to anti-steroid Fab fragments” value [2] did it give?
Its value is “slight activation of binding”.

And the IC50 (anti-steroid antibodies; [6])?
The IC50 was 0.015 µM.

And the IC50 (anti-steroid antibodies; [7])?
Its IC50 is 0.015 µM.

And the IC50 (anti-steroid antibodies; [8])?
The IC50 was 0.0032 µM.

And the IC50 (glucocorticoid receptor [4])?
The IC50 was 0.005 µM.

For C[C@]12CC[C@@H]3c4ccc(O)cc4CC[C@H]3[C@@H]1CC[C@@H]2O [estradiol-17β], which “effect … to anti-steroid Fab fragments” value [2] is on record?
Its value is “slight activation of binding”.

What about the “effect on the binding of 8G11-C6 to partially purified glucocorticoid receptor” value [3] of the same compound?
Its value is “no effect”.

With CC1(C)O[C@@H]2C[C@H]3[C@@H]4CCC5=CC(=O)C=C[C@]5(C)[C@@]4(F)[C@@H](O)C[C@]3(C)[C@]2(C(=O)CO)O1 [triamcinolone acetonide] as the compound, how does the Kd (glucocorticoid receptor [5]) read?
The Kd was 0.005 µM.

And the “effect … to anti-steroid Fab fragments” value [2]?
Its value is “did not affect”.

And the Kd (anti-steroid antibodies; competitive binding with [3H]TA as tracer (FIG. 6, Table I), read-out: apparent Kd of the anti-steroid in unprocessed rabbit serum)?
The Kd was 0.0032 µM.

And the Kd (glucocorticoid receptor [4])?
Its Kd is 0.015 µM.

“rabbit serum albumin: carrier protein tested alone as inhibitor” was tested. Which “effect … to anti-steroid Fab fragments” value [2] did it give?
The value was “did not affect”.
